{"source": "patent US7928143B2", "about": "“Method for preventing and/or treating neurodegenerative diseases” (Ono Pharmaceutical Co., Ltd., priority 2003, dated 2011)", "format_in_all_cases": "in vivo, human", "key": {"[1]": {"system": "patients with cerebral infarction at the acute phase (within 24 hours after onset of the disease)", "assay": "Clinical test Example 2: safety evaluation (adverse matters and clinical test values)", "settings": "administration group (2 to 12 mg/kg/h, i.v. 7 days)", "method": "(§1) As a clinical test, a double blind test was carried out using patients with cerebral infarction at the acute phase (within 24 hours after onset of the disease) under the following conditions by (2R)-2-propyloctanoic acid administration groups (6 varied doses) and a placebo administration group. • Object: 92 patients in the acute phase cerebral infarction. • Administration method and dosage: 1 hour of continuous intravenous administration once a day in each group; • (1) (2R)-2-propyloctanoic acid: 2 mg/kg/h; • (2) (2R)-2-propyloctanoic acid: 4 mg/kg/h; • (3) (2R)-2-propyloctanoic acid: 6 mg/kg/h; • (4) (2R)-2-propyloctanoic acid: 8 mg/kg/h; • (5) (2R)-2-propyloctanoic acid: 10 mg/kg/h; • (6) (2R)-2-propyloctanoic acid: 12 mg/kg/h; • (7) placebo. • Administration period: 7 days • The Number of Cases: • (1) (2R)-2-propyloctanoic acid 2 mg/kg/h administered group: 9 patients; • (2) (2R)-2-propyloctanoic acid 4 mg/kg/h administered group: 8 patients; • (3) (2R)-2-propyloctanoic acid 6 mg/kg/h administered group: 8 patients; • (4) (2R)-2-propyloctanoic acid 8 mg/kg/h administered group: 8 patients; • (5) (2R)-2-propyloctanoic acid 10 mg/kg/h administered group: 8 patients; • (6) (2R)-2-propyloctanoic acid 12 mg/kg/h administered group: 8 patients; • (7) placebo administered group: 43 patients. Evaluation Items: Main Evaluation Items <Efficacy Evaluation Items> (1) Modified Rankin Scale (mRS)\nAdverse Matters and Clinical Test Values\n• Analysis: Therapeutic effects by continuous intravenous administration of (2R)-2-propyloctanoic acid was evaluated based on the above main evaluation items. • Results: The results are shown below. <Efficacy Evaluation Item>"}, "[2]": {"system": "patients with cerebral infarction at the acute phase (within 24 hours after onset of the disease)", "assay": "Clinical test Example 2: double blind placebo-controlled test, efficacy by modified Rankin Scale", "settings": "8 mg/kg/h administration group, 1 h continuous i.v. once a day for 7 days; 40 days after commencement of administration; statistically significant vs placebo (32.5%)", "method": "as §1, with “Evaluation Items: Main Evaluation Items <Efficacy Evaluation Items> (1) Modified Rankin Scale (mRS)” left out"}, "[3]": {"system": "patients with cerebral infarction at the acute phase (within 72 hours after onset of the disease)", "assay": "Clinical test Example 1: randomization test at two doses, efficacy by Rankin Scale and Glasgow Outcome Scale", "settings": "4 mg/kg/h vs 0.4 mg/kg/h group, 1 h continuous i.v. once a day for 7 days, cases with JSS≦15 before administration, three months after commencement of administration", "method": "(§2) As a clinical test, a randomization test was carried out on patients with cerebral infarction at the acute phase (within 72 hours after onset of the disease), at two doses under the following conditions. • Object: 97 patients in the acute phase cerebral infarction. • Administration method and dosage: 1 hour of continuous intravenous administration once a day in each group; • (1) (2R)-2-propyloctanoic acid: 0.4 mg/kg/h; • (2) (2R)-2-propyloctanoic acid: 4 mg/kg/h. • Administration period: 7 days • The Number of Cases: • (1) (2R)-2-propyloctanoic acid 0.4 mg/kg/h administered group: 51 patients; • (2) (2R)-2-propyloctanoic acid 4 mg/kg/h administered group: 46 patients. Evaluation Items: Main Evaluation Items <Efficacy Evaluation Items> (1) Rankin Scale (RS)\nEvaluation method: Symptoms of patients were scored by classifying them into the following grades of Table 1.\n(2) Glasgow Outcome Scale (GOS)\nEvaluation method: Symptoms of patients were scored by classifying them into the following grades of Table 2.\n(§3) <Safety Evaluation Item> • Frequency of adverse matters and the contents thereof (symptoms, causal relation and the like): • Analysis: Therapeutic effects by continuous intravenous administration of (2R)-2-propyloctanoic acid were evaluated based on the above main evaluation items. • Results: The results are shown below. <Efficacy Evaluation Item>"}, "serum S-100β": {"system": "serum S-100β", "assay": "Clinical test Example 2: serum S-100β content (SMART S100 ELISA Kit)", "settings": "administered groups (2 to 12 mg/kg/h, i.v. 7 days) in comparison with placebo group; particularly remarkable on and after 3 days; FIG. 3", "method": "as §1, with “Evaluation Items: Main Evaluation Items <Efficacy Evaluation Items> (1) Modified Rankin Scale (mRS)” left out"}, "[4]": {"system": "patients with cerebral infarction at the acute phase (within 72 hours after onset of the disease)", "assay": "Clinical test Example 1: safety evaluation (frequency of adverse matters and contents)", "settings": "i.v. 7 days, causal relation to the test drug was denied", "method": "as §2, §3"}}, "data": [{"compound": "CCCCCC[C@@H](CCC)C(=O)O", "note": "[(2R)-2-propyloctanoic acid]", "values": [{"measurement": "Serious adverse matters", "setting": "[1]; causal relation to the test drug was denied, placebo 12 cases", "result": 10, "unit": "cases"}, {"measurement": "Frequency of the adverse matters (side effects) whose causal relation to the test drug was not denied", "setting": "[1]; placebo 39.5%, no difference", "result": 42.9, "unit": "%"}, {"measurement": "Frequency of the adverse matters", "setting": "[1]; placebo 100%, no difference", "result": 98, "unit": "%"}, {"measurement": "ratio occupied by a score of 2 or less (category of good improvement) on modified Rankin Scale (mRS)", "setting": "[2]", "result": 87.5, "unit": "%"}, {"measurement": "ratio of occupying the category of improvement by RS (Rankin Scale)", "setting": "[3]; FIG. 1", "result": "statistically significant differences were found"}, {"measurement": "ratio of occupying the category of improvement by GOS (Glasgow Outcome Scale)", "setting": "[3]; FIG. 2", "result": "statistically significant differences were found"}, {"measurement": "serum S-100β content during the administration period", "setting": "serum S-100β", "result": "tendency of inhibiting increase of the serum S-100β content"}, {"measurement": "cases of death", "setting": "[4]; 0.4 mg/kg/h administration group", "result": 3, "unit": "cases"}, {"measurement": "cases of death", "setting": "[4]; 4 mg/kg/h administration group", "result": 4, "unit": "cases"}]}]}
